The experiment addresses T1, IP receptor (Homo sapiens, UniProt P43119).
T1 construct: expressed in transfected cells; host or cells: CHO cells stably expressing the IP receptor (CHO-IP)
In words: cAMP accumulation in CHO cells stably expressing the IP receptor (CHO-IP), Perkin Elmer AlphaScreen assay. Format: cell-based. The settings on record: agonist activity, 1 hour at room temperature. How it is done:
Activity of compounds at the IP receptor (IP receptor) is assessed by measuring cAMP accumulation in CHO cells stably expressing the IP receptor (CHO-IP) using the Perkin Elmer AlphaScreen assay. This technology measures the endogenous production of cAMP, in a non-radioactive luminescence proximity homogenous assay. A biological reaction occurs between streptavidin coated donor beads, biotinylated cAMP and anti-cAMP acceptor beads, bringing the donor and acceptor beads close enough together so that upon excitation a fluorescence signal is produced. On production of endogenous cAMP, competition between the biotinylated cAMP and cellular-derived cAMP causes a reduction in the fluorescent signal. The reduction in signal is proportional to the amount of cAMP being produced, thus it is possible to quantify the amount of cAMP being produced on stimulation with agonist.
Test and reference compounds are prepared at 100× [final] in 100% DMSO, and diluted 1:3 using a Biomek Fx (Beckman Coulter). This is followed by an intermediate dilution to give 5× [final] in assay buffer (HBSS containing 5 mM HEPES, 0.1% (w/v) BSA). 5 μL of 5× [final] test compounds, reference compounds and buffer/DMSO control are then transferred to a 384-well white OptiPlate, containing 20 μL CHO-IP cell suspension (15,000 cells/well, prepared from frozen), and plate is incubated at room temperature for 1 hour. A cAMP standard curve is constructed for each experiment (concentration range of 10000 nM to 0.001 nM, in assay buffer) and 25 μL of each concentration added to the last two columns of the assay plate. The incubation is terminated by the addition of lysis buffer (dH2O; 0.3% (v v^−1) Tween-20) containing 20 units mL^−1 streptavidin coated donor beads and biotinylated cAMP (pre-incubated for 30 minutes) and 20 units mL^−1 anti-cAMP acceptor beads, which are added to the lysis buffer just before addition to the assay plate. The assay plate is then incubated at room temperature in the dark, for 60 minutes with gentle shaking, and read on the Envision plate reader (Perkin Elmer).
The raw data of the reference compounds, test compounds and controls are converted into cAMP concentrations, using the cAMP standard curve, in Graph Pad Prism (Graph Pad Software Inc). EC50 as well as maximal values of the agonist curves are determined using a 4-parameter logistic equation. The % maximum response values of all test compounds are determined using the top of the treprostinil concentration-response curve.
T1 sequence (P43119 whole entry): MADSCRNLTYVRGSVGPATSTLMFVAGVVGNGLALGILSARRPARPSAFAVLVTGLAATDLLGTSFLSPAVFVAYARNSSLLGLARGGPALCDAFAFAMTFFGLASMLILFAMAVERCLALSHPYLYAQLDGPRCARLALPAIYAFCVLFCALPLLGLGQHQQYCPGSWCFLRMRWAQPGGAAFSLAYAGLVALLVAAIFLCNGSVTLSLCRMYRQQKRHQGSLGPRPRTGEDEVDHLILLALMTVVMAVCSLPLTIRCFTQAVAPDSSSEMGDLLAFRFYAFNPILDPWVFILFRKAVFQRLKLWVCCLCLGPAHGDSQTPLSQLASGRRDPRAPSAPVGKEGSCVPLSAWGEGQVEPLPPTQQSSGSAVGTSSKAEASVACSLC
Take `Cc1ccc(-c2nc3c(nc2-c2ccc(C)cc2)N(CCCCCCC(=O)O)C(=O)C(C(C)(C)O)C3)cc1` (single isomer, unassigned) [1.1(i), (R)-7-(7-(2-hydroxypropan-2-yl)-6-oxo-2,3-di-p-tolyl-7,8-dihydropyrido[2,3-b]pyrazin-5(6H)-yl)heptanoic acid or (S)-7-(7-(2-hydroxypropan-2-yl)-6-oxo-2,3-di-p-tolyl-7,8-dihydropyrido[2,3-b]pyrazin-5(6H)-yl)heptanoic acid]: the response was half-maximal at 0.3 nM (EC50).

Compound `Cc1ccc(-c2nc3c(nc2-c2ccccc2)CC(C)CN3CCCCCCC(=O)O)cc1` (centres unmarked) [Example 2.2, 7-(7-Methyl-2-phenyl-3-(p-tolyl)-7,8-dihydropyrido[2,3-b]pyrazin-5(6H)-yl)heptanoic acid] displayed an EC50 of 0.1 nM. This EC50 lies about 3-fold lower than the previous one.

Compound `Cc1ccc(-c2nc3c(nc2-c2ccc(C)cc2)N(CCCCC(O)CC(=O)O)CCC3)cc1` (racemic) [Example 17, rac-7-(2,3-Di-p-tolyl-7,8-dihydropyrido[2,3-b]pyrazin-5(6H)-yl)-3-hydroxyheptanoic acid] showed an EC50 of 1.8 nM.

`COC1CCN(CCCCCCC(=O)O)c2nc(-c3ccc(C)cc3)c(-c3ccc(C)cc3)nc21` (racemic) [Example 3.1, rac-7-(8-Methoxy-2,3-di-p-tolyl-7,8-dihydropyrido[2,3-b]pyrazin-5(6H)-yl)heptanoic acid] came in with an EC50 of 0.8 nM.

For the compound `CCC1CCc2nc(-c3ccc(C)cc3)c(-c3ccc(C)cc3)nc2N1CCCCCCC(=O)O` (single isomer, unassigned) [2.3(ii), (R)-7-(6-Ethyl-2,3-di-p-tolyl-7,8-dihydropyrido[2,3-b]pyrazin-5(6H)-yl)heptanoic acid or (S)-7-(6-Ethyl-2,3-di-p-tolyl-7,8-dihydropyrido[2,3-b]pyrazin-5(6H)-yl)heptanoic acid], the EC50 came out at 0.3 nM.

Consider `COc1ccc(-c2nc3c(nc2-c2ccc(C)cc2)N(CCCCCCC(=O)O)CCC3)cc1` [Example 2.10, 7-(2-(4-Methoxyphenyl)-3-p-tolyl-7,8-dihydropyrido[2,3-b]pyrazin-5(6H)-yl)heptanoic acid], for which the EC50 worked out at 0.4 nM.

With `Cc1ccc(-c2nc3c(nc2-c2ccccc2C)CCCN3CCCCCCC(=O)O)cc1` [Example 2.6, 7-(2-o-Tolyl-3-p-tolyl-7,8-dihydropyrido[3,2-b]pyrazin-5(6H)-yl)heptanoic acid], a half-maximal effect (EC50) was put at 0.6 nM.

In the case of `Cc1ccc(-c2nc3c(nc2-c2ccc(Cl)cc2)CCC(=O)N3CCCCCCC(=O)O)cc1` [Example 7.2, 7-(2-(4-Chlorophenyl)-6-oxo-3-p-tolyl-7,8-dihydropyrido[2,3-b]pyrazin-5(6H)-yl)heptanoic acid], the EC50 came out at 1.2 nM.

Turning to `Cc1ccc(-c2nc3c(nc2-c2ccc(C)nc2)N(CCCCCCC(=O)O)CCC3)cc1` [Example 7, 7-(3-(6-Methylpyridin-3-yl)-2-p-tolyl-7,8-dihydropyrido[2,3-b]pyrazin-5(6H)-yl)heptanoic acid], it took 0.2 nM to reach a half-maximal effect (EC50).

Take `CO[C@@H]1CCN(CCCCCCC(=O)O)c2nc(-c3ccc(C)cc3)c(-c3ccc(C)cc3)nc21` (single isomer, unassigned) [Example 3.3, (R)-7-(8-methoxy-2,3-di-p-tolyl-7,8-dihydropyrido[2,3-b]pyrazin-5(6H)-yl)heptanoic acid or (S)-7-(8-methoxy-2,3-di-p-tolyl-7,8-dihydropyrido[2,3-b]pyrazin-5(6H)-yl)heptanoic acid]: the EC50 was found to be 2.3 nM. Compared with the last compound, the EC50 is about 11-fold higher.

`Cc1ccc(-c2nc3c(nc2-c2ccc(C)cc2)N(CCCCCCC(=O)N(C)C)CCC3)cc1` [Example 12.7, 7-(2,3-Di-p-tolyl-7,8-dihydropyrido[2,3-b]pyrazin-5(6H)-yl)-N,N-dimethylheptanamide] came in with an EC50 of 75.9 nM.

`Cc1ccc(-c2nc3c(nc2-c2ccc(C)cc2)N(CCCCCCC(=O)O)C(=O)C(O)C3)cc1` (single isomer, unassigned) [11(i), (R)-7-(7-hydroxy-6-oxo-2,3-di-p-tolyl-7,8-dihydropyrido[2,3-b]pyrazin-5(6H)-yl) heptanoic acid or (S)-7-(7-hydroxy-6-oxo-2,3-di-p-tolyl-7,8-dihydropyrido[2,3-b]pyrazin-5(6H)-yl) heptanoic acid]: the EC50 was determined as 0.3 nM.

As to `Cc1ccc(-c2nc3c(nc2-c2ccc(C)cc2)N(CCCCCCC(=O)NC(C)C)CCC3)cc1` [Example 12.3, 7-(2,3-Di-p-tolyl-7,8-dihydropyrido[2,3-b]pyrazin-5(6H)-yl)-N-isopropylheptanamide], a half-maximal response (EC50) required 45 nM. Compared with the last compound, the EC50 is about 150-fold higher.

As to `Cc1ccc(-c2nc3c(nc2-c2ccc(C)cc2)N(CCCCCCCCC(=O)O)C(=O)CC3)cc1` [Example 8, 9-(6-Oxo-2,3-di-p-tolyl-7,8-dihydropyrido[2,3-b]pyrazin-5(6H)-yl)nonanoic acid], the EC50 came out at 7 nM.

Compound `CCC1Cc2nc(-c3ccc(C)cc3)c(-c3ccc(C)cc3)nc2N(CCCCCCC(=O)O)C1` (centres unmarked) [Example 2.1, 7-(7-Ethyl-2,3-di-p-tolyl-7,8-dihydropyrido[2,3-b]pyrazin-5(6H)-yl)heptanoic acid] gave an EC50 of 0.4 nM. This EC50 lies about 18-fold lower than the previous one.

Consider `Cc1ccc(-c2nc3c(nc2-c2ccc(C)cc2)N(CCCCCCC(=O)N(C)O)CCC3)cc1` [Example 12.8, 7-(2,3-Di-p-tolyl-7,8-dihydropyrido[2,3-b]pyrazin-5(6H)-yl)-N-hydroxy-N-methylheptanamide], for which the EC50 is 8 nM. Compared with the last compound, the EC50 is about 20-fold higher.

On to `Cc1ccc(-c2nc3c(nc2-c2ccccc2F)CCCN3CCCCCCC(=O)O)cc1` [Example 2.7, 7-(2-(2-Fluorophenyl)-3-p-tolyl-7,8-dihydropyrido[2,3-b]pyrazin-5(6H)-yl)heptanoic acid], for which it took 0.3 nM to reach a half-maximal effect (EC50).

Turning to `O=C(O)CCCCCCN1C(=O)CCc2nc(-c3ccc(Cl)cc3)c(-c3ccc(Cl)cc3)nc21` [Example 7.1, 7-(2,3-Bis(4-chlorophenyl)-6-oxo-7,8-dihydropyrido[2,3-b]pyrazin-5(6H)-yl)heptanoic acid], it took 2.3 nM to reach a half-maximal effect (EC50).

Compound `Cc1ccc(-c2nc3c(nc2-c2ccc(C)cc2)N(CCCCCCC(=O)O)C(=O)C(C(C)(C)O)C3)cc1` (single isomer, unassigned) [Example 1.1, rac-7-(7-(2-Hydroxypropan-2-yl)-6-oxo-2,3-di-p-tolyl-7,8-dihydropyrido[2,3-b]pyrazin-5(6H)-yl)heptanoic acid] showed a concentration giving a half-maximal response (EC50) of 0.3 nM. This EC50 lies about 7.7-fold lower than the previous one.

As to `Cc1ccc(-c2nc3c(nc2-c2ccc(C)nc2)N(CCCCCCC(=O)O)CCC3)cn1` [Example 5, 7-(2,3-Bis(6-methylpyridin-3-yl)-7,8-dihydropyrido[2,3-b]pyrazin-5(6H)-yl)heptanoic acid], the EC50 turned out to be 11.7 nM.

`Cc1ccc(-c2nc3c(nc2-c2ccc(C)cc2)N(CCCCCCC(=O)O)CC(N2CCCCC2)C3)cc1` (centres unmarked) [Example 14] registered an EC50 of 2.7 nM.

`CO[C@@H]1CCN(CCCCCCC(=O)O)c2nc(-c3ccc(C)cc3)c(-c3ccc(C)cc3)nc21` (single isomer, unassigned) [Example 3.2, (R)-7-(8-methoxy-2,3-di-p-tolyl-7,8-dihydropyrido[2,3-b]pyrazin-5(6H)-yl)heptanoic acid or (S)-7-(8-methoxy-2,3-di-p-tolyl-7,8-dihydropyrido[2,3-b]pyrazin-5(6H)-yl)heptanoic acid] gave an EC50 of 13.6 nM.

`Cc1ccc(-c2nc3c(nc2-c2ccc(C)cc2)C(C)(O)CCN3CCCCCCC(=O)O)cc1` (centres unmarked) [Example 16, 7-(8-Hydroxy-8-methyl-2,3-di-p-tolyl-7,8-dihydropyrido[2,3-b]pyrazin-5(6H)-yl)heptanoic acid]: it took 0.4 nM to reach a half-maximal effect (EC50).

In turn, `Cc1ccc(-c2nc3c(nc2-c2ccc(C)nc2)CCCN3CCCCCCC(=O)O)cc1` [Example 6, 7-(2-(6-Methylpyridin-3-yl)-3-p-tolyl-7,8-dihydropyrido[2,3-b]pyrazin-5(6H)-yl)heptanoic acid] returned an EC50 of 0.2 nM.

The compound `Cc1ccc(-c2nc3c(nc2-c2ccc(C)cc2)N(CCCCCC(=O)NO)CCC3)cc1` [Example 12.10, 6-(2,3-Di-p-tolyl-7,8-dihydropyrido[2,3-b]pyrazin-5(6H)-yl)-N-hydroxyhexanamide] had an EC50 of 55.6 nM.

`Cc1ccc(-c2nc3c(nc2-c2ccc(C)cc2)N(CCCCCCC(=O)NS(=O)(=O)Cc2ccccc2)CCC3O)cc1` (single isomer, unassigned) [Example 13.3, (R)—N-(benzylsulfonyl)-7-(8-hydroxy-2,3-di-p-tolyl-7,8-dihydropyrido[3,2-b]pyrazin-5(6H)-yl)heptanamide or (S)—N-(benzylsulfonyl)-7-(8-hydroxy-2,3-di-p-tolyl-7,8-dihydropyrido[3,2-b]pyrazin-5(6H)-yl)heptanamide]: the EC50 came out at 66.2 nM.
